The target in this test is T1, NapH1 (Streptomyces sp. CNQ-525, UniProt A7KH27).
T1 sequence (A7KH27 42-527): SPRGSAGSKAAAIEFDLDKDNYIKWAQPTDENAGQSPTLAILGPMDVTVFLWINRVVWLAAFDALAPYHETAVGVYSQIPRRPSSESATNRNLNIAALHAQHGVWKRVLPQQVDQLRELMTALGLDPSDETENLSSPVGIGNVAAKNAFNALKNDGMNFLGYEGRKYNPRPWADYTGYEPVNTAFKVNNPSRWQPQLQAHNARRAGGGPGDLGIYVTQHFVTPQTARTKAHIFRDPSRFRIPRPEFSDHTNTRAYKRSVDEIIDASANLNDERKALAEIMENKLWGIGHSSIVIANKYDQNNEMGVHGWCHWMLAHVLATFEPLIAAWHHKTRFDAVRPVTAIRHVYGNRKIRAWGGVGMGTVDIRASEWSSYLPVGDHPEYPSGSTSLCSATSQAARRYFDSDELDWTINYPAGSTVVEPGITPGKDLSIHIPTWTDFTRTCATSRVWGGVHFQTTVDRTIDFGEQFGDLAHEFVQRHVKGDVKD
In words: crystal structure. The class given is binding. The following applies: homodimer; structures with and without vanadate.

Molecules are shown by their SMILES.

`[O]=[V]([OH])([OH])[OH]` [vanadate]: the crystal structure result is “we solved the three-dimensional structures of the homodimeric NapH1 with and without vanadate”.

The values are drawn from PMC6483395 (Synlett : accounts and rapid communications in synthetic …, 2017).
